Test results published in patent US11814376B2, “Hepatitis b core protein modulators” (Assembly Biosciences, Inc., priority 2015, dated 2023).

Assays:
[1] = tested on: HBV viral load in AD38 cells; assay: Viral load production in AD38 cells, quantitative PCR of the core sequence in supernatant; type: cell-based; settings: Hepatitis B virus, 144 h, 10 μM compound, 6 days at 37° C., supernatant qPCR, relative to DMSO control; read-out: AD38 Viral Load (%) (VL with cmpd/VL in DMSO control) at 10 μM
Experimental: (§1) Example 2: Assay Measuring Activity of Compounds on Viral Production in and on Viability of AD38 Cells
(§2) AD38 cells were then re-suspended with 10 mL of Treatment Medium and counted. Wells of a collagen coated 96-well NUNC microtiter plate were seeded at 50,000/well in 180 μL of Treatment Medium, and 20 μL of in treatment media with either 10% DMSO (Control) or a 10× solution of compound in 10% DMSO was added. Plates were incubated for 6 days at 37° C.
Viral load production was assayed by quantitative PCR of the core sequence. […] The PCR mixture was incubated at 45° C. for 5 minutes, then 95° C. for 10 min, followed by 40 cycles of 10 seconds at 95° C. and 20 seconds at 60° C. Viral load was quantitated against known standards by using ViiA™ 7 Software. Viral load in the supernatant from wells with treated cells were compared against viral load in supernatant from DMSO control wells (>3 per plate).

AD38 cells = assay: Viability of AD38 cells (Promega CellTiter-Glo); type: cell-based; settings: 10 μM compound, 6 days, CellTiter-Glo luminescence normalized to DMSO control (100%)
Experimental: as §1, §2
At the end of compound treatment period cell viability was assessed using a Promega CellTiter-Glo protocol. All supernatant was removed the previously treated 96-well microtiter plate, and 50 μL Tetracycline-free treatment medium (DMEM/F12 (1:1), 1× Pen/step (cat #: 30-002-CL, Mediatech, Inc), with 2% FBS, Tet-system approved (cat #: 631106, Clontech), and 1% DMSO was added back to each well. Another 50 μL of CellTiter-Glo reagent solution (Promega, G7573) was then added at room temperature and the contents mixed for 2 minutes on an orbital shaker to induce cell lysis. This was followed by incubation at room temperature for 10 minutes to stabilize the luminescent signal. The luminescence was recorded for 0.2 seconds per well on a Tecan multimode plate reader (Infinite M1000 pro). The luminescent signal from each well was normalized against that of untreated (DMSO) control wells. All results were reported percent viability (with controls being 100%).

Which results are given for `O=C(NCc1cnc(-c2ccc(OCC3CNC3)cc2)s1)c1ccc2c(c1)NC(=O)c1ccccc1S2(=O)=O.O=C(O)C(F)(F)F` [compound 1995, N-((2-(4-(azetidin-3-ylmethoxy)phenyl)thiazol-5-yl)methyl)-11-oxo-10, 11-dihydrodibenzo [b, f] [1, 4] thiazepine-8-carboxamide 5,5-dioxide TFA salt]?
activity at 10 µM [1]: 16.3%; AD38 Viability Normalized Result (cmpd/DMSO %) at 10 μM (AD38 cells): 103%

`O=C(NCc1cnc(-n2cccn2)s1)c1ccc2c(c1)NC(=O)c1ccccc1S2(=O)=O` [compound 1960] was tested. Which activity at 10 µM [1] did it give?
Its activity at 10 µM is 0.8%.

What about the “AD38 Viability Normalized Result (cmpd/DMSO %) at 10 μM” value (AD38 cells) of the same compound?
The value was 106%.

Which activity at 10 µM [1] does the source give for `N#Cc1ncc(CNC(=O)c2ccc3c(c2)NC(=O)c2ccccc2S3(=O)=O)s1` [compound 1628] here?
The activity at 10 µM was 21.8%.

And the “AD38 Viability Normalized Result (cmpd/DMSO %) at 10 μM” value (AD38 cells)?
Its value is 95%.

For `CNCCCOc1ccc(-c2ncc(CNC(=O)c3ccc4c(c3)NC(=O)c3ccccc3S4(=O)=O)s2)cc1` [compound 1989, N-((2-(4-(3-(methylamino)propoxy)phenyl)thiazol-5-yl)methyl)-11-oxo-10, 11-dihydrodibenzo [b, f] [1, 4] thiazepine-8-carboxamide 5,5-dioxide], which activity at 10 µM [1] is on record?
Its activity at 10 µM is 2.5%.

What about the “AD38 Viability Normalized Result (cmpd/DMSO %) at 10 μM” value (AD38 cells) of the same compound?
The value was 90%.

How did the activity at 10 µM [1] turn out when `CC(C)N(C)CC(O)COc1ccc(-c2ncc(CNC(=O)c3ccc4c(c3)NC(=O)c3ccccc3S4(=O)=O)s2)cc1` (stereo not drawn) [compound 11087] was run?
Its activity at 10 µM is 7.1%.

And the “AD38 Viability Normalized Result (cmpd/DMSO %) at 10 μM” value (AD38 cells)?
The value was 103%.

Which results are given for `O=C(NCc1cnc(N2CCC(O)CC2)s1)c1ccc2c(c1)NC(=O)c1ccccc1S2(=O)=O` [compound 1859]?
activity at 10 µM [1]: 2.7%; AD38 Viability Normalized Result (cmpd/DMSO %) at 10 μM (AD38 cells): 89%

`O=C(NCc1cnc(-c2ccc(O)c(F)c2)s1)c1ccc2c(c1)NC(=O)c1ccccc1O2` [compound 1700] was tested. Which activity at 10 µM [1] did it give?
Its activity at 10 µM is 9.2%.

And the “AD38 Viability Normalized Result (cmpd/DMSO %) at 10 μM” value (AD38 cells)?
Its value is 105%.

Which activity at 10 µM [1] does the source give for `NCCCS(=O)(=O)c1ccc(-c2ncc(CNC(=O)c3ccc4c(c3)NC(=O)c3ccccc3S4(=O)=O)s2)cc1.O=C(O)C(F)(F)F` [compound 11032, N-((2-(4-((3-aminopropyl)sulfonyl)phenyl)thiazol-5-yl)methyl)-11-oxo-10, 11-dihydrodibenzo [b, f] [1, 4] thiazepine-8-carboxamide 5,5-dioxide TFA salt] here?
The activity at 10 µM was 51.7%.

What about the “AD38 Viability Normalized Result (cmpd/DMSO %) at 10 μM” value (AD38 cells) of the same compound?
The value was 103%.

Which activity at 10 µM [1] does the source give for `Cc1ncc(CNC(=O)c2ccc3c(c2)NC(=O)c2ccccc2C3C)s1` (stereo not drawn) [compound 1548] here?
Its activity at 10 µM is 0.4%.

And the “AD38 Viability Normalized Result (cmpd/DMSO %) at 10 μM” value (AD38 cells)?
The value was 97%.

`O=C(NCc1cnc(-c2ccccc2CCO)s1)c1ccc2c(c1)NC(=O)c1ccccc1S2(=O)=O` [compound 1839, N-((2-(2-(2-hydroxyethyl)phenyl)thiazol-5-yl)methyl)-11-oxo-10, 11-dihydrodibenzo [b, f] [1, 4] thiazepine-8-carboxamide 5,5-dioxide] was tested. Which activity at 10 µM [1] did it give?
The activity at 10 µM was 6.6%.

What about the “AD38 Viability Normalized Result (cmpd/DMSO %) at 10 μM” value (AD38 cells) of the same compound?
Its value is 96%.

For `CN(C)CCCOc1ccc(-c2ncc(CNC(=O)c3ccc4c(c3Cl)NC(=O)c3ccccc3S4(=O)=O)s2)cc1` [C51-01], which activity at 10 µM [1] is on record?
The activity at 10 µM was 0.4%.

What about the “AD38 Viability Normalized Result (cmpd/DMSO %) at 10 μM” value (AD38 cells) of the same compound?
Its value is 99%.

How did the activity at 10 µM [1] turn out when `N#Cc1ccc(-c2ncc(CNC(=O)c3ccc4c(c3)NC(=O)c3ccccc3S4(=O)=O)s2)nc1` [compound 1881] was run?
Its activity at 10 µM is 0.8%.

And the “AD38 Viability Normalized Result (cmpd/DMSO %) at 10 μM” value (AD38 cells)?
Its value is 108%.

Which activity at 10 µM [1] does the source give for `O=C(NCc1cnc(-c2ccc(C#CCCN3CCOCC3)cc2)s1)c1ccc2c(c1)NC(=O)c1ccccc1S2(=O)=O` [compound 11061, N-((2-(4-(4-morpholinobut-1-yn-1-yl)phenyl)thiazol-5-yl)methyl)-11-oxo-10, 11-dihydrodibenzo [b, f] [1, 4] thiazepine-8-carboxamide 5,5-dioxide] here?
Its activity at 10 µM is 0.9%.

What about the “AD38 Viability Normalized Result (cmpd/DMSO %) at 10 μM” value (AD38 cells) of the same compound?
The value was 95%.

For `Cc1ncc(CNC(=O)c2ccc3c(c2)NC(=O)c2ccccc2O3)s1` [compound 1557], which activity at 10 µM [1] is on record?
The activity at 10 µM was 0.6%.

And the “AD38 Viability Normalized Result (cmpd/DMSO %) at 10 μM” value (AD38 cells)?
Its value is 98%.

Which results are given for `Cc1ncc(CNC(=O)c2ccc3c(=O)c4ccccc4c(=O)[nH]c3c2)s1` [compound 1592]?
activity at 10 µM [1]: 1.3%; AD38 Viability Normalized Result (cmpd/DMSO %) at 10 μM (AD38 cells): 99%
